Assay results published in ChEMBL document CHEMBL4350988, “Development of selective small molecule MDM2 degraders based on nutlin” (Eur J Med Chem, 2019).
The source made the active and inactive calls. The calls are words filed in the database; no cut-off is given here.

Columns and labels:
[1] = target: T1, Protein cereblon/E3 ubiquitin-protein ligase Mdm2 (Homo sapiens, UniProt Q00987+Q96SW2); assay: Protac activity at CRBN/MDM2 in human RS4:11 cells assessed as reduction in MDM2 degradation at 100 nM preincubated with ((4S,5R)-2-(4-(tert-butyl)-2-ethoxyphenyl)-4,5-bis(4-chlorophenyl)-4,5-dihydro-1H-imidazol-1-yl)(piperazin-1-yl)methanone for 2 hrs followed by compound addition measured after 4 hrs by Western blot analysis; type: cell-based
Target sequence in this assay (Q00987 whole entry, looked up): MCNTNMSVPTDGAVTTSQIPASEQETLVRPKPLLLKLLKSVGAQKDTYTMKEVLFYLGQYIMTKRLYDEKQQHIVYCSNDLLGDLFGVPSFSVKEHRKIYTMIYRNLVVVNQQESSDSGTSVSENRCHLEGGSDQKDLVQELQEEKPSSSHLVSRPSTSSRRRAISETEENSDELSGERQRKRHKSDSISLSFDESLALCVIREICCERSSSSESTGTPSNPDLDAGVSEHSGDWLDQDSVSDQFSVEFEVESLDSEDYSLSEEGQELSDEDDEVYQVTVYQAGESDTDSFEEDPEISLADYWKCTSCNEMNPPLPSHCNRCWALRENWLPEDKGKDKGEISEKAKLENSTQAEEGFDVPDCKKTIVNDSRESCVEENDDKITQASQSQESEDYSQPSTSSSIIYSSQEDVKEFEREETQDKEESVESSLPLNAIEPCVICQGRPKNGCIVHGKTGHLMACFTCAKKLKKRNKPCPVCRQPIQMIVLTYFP
Target sequence in this assay (Q96SW2 whole entry, looked up): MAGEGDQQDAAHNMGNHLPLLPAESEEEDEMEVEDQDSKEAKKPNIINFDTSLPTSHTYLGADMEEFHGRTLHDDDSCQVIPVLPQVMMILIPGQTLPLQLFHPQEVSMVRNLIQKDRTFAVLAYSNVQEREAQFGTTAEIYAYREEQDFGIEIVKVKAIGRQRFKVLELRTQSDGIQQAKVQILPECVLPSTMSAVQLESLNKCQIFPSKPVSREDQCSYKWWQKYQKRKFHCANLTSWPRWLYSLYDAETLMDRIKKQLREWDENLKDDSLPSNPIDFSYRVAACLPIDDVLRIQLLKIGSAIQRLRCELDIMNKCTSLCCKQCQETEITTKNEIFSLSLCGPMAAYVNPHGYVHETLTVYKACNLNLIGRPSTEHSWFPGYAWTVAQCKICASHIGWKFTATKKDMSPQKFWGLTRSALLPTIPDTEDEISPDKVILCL

[2] = target: T1, Protein cereblon/E3 ubiquitin-protein ligase Mdm2; assay: Protac activity at CRBN/MDM2 in human RS4:11 cells assessed as increase in P21 expression at 100 nM to 1 uM by Westernblot analysis; type: cell-based
Target sequence in this assay (Q00987 whole entry, looked up): as the sequence (Q00987 whole entry, looked up) above
Target sequence in this assay (Q96SW2 whole entry, looked up): as the sequence (Q96SW2 whole entry, looked up) above

[3] = target: T1, Protein cereblon/E3 ubiquitin-protein ligase Mdm2; assay: Protac activity at CRBN/MDM2 in human RS4:11 cells assessed as MDM2 degradation at 100 nM preincubated with proteasome inhibitior MG132 for 2 hrs followed by compound addition measured after 4 hrs by Western blot analysis; type: cell-based
Target sequence in this assay (Q00987 whole entry, looked up): as the sequence (Q00987 whole entry, looked up) above
Target sequence in this assay (Q96SW2 whole entry, looked up): as the sequence (Q96SW2 whole entry, looked up) above

[4] = target: T1, Protein cereblon/E3 ubiquitin-protein ligase Mdm2; assay: Protac activity at CRBN/MDM2 in human RS4:11 cells assessed as increase in degradation of MDM2 by Western blot analysis; type: cell-based; conditions: TDE = time-dependent effect
Target sequence in this assay (Q00987 whole entry, looked up): as the sequence (Q00987 whole entry, looked up) above
Target sequence in this assay (Q96SW2 whole entry, looked up): as the sequence (Q96SW2 whole entry, looked up) above

RS4-11 [5] = assay: Induction of apoptosis in human RS4:11 cells assessed as necrotic cells at 10 nM after 24 hrs by Annexin-V-FITC/propidium iodide staining based flow cytometry relative to control; type: functional
RS4-11 [6] = assay: Induction of apoptosis in human RS4:11 cells assessed as late apoptotic cells at 10 nM after 24 hrs by Annexin-V-FITC/propidium iodide staining based flow cytometry relative to control; type: functional
RS4-11 [7] = assay: Induction of apoptosis in human RS4:11 cells assessed as viable cells at 100 nM after 24 hrs by Annexin-V-FITC/propidium iodide staining based flow cytometry relative to control; type: functional; conditions: RS4-11, 24 h, read-out: Activity
RS4-11 [8] = assay: Induction of apoptosis in human RS4:11 cells assessed as viable cells at 1000 nM after 24 hrs by Annexin-V-FITC/propidium iodide staining based flow cytometry relative to control; type: functional; conditions: RS4-11, 24 h, read-out: Activity
RS4-11 [9] = assay: Antiproliferative activity against human RS4:11 cells assessed as reduction in cell viability at 100 nM after 48 hrs by MTT assay; type: functional, cell-based
[10] = target: T1, Protein cereblon/E3 ubiquitin-protein ligase Mdm2; assay: Protac activity at CRBN/MDM2 in human RS4:11 cells assessed as PARP cleavage after 6 hrs by Western blot analysis; type: cell-based
Target sequence in this assay (Q00987 whole entry, looked up): as the sequence (Q00987 whole entry, looked up) above
Target sequence in this assay (Q96SW2 whole entry, looked up): as the sequence (Q96SW2 whole entry, looked up) above

RS4-11 [11] = assay: Induction of apoptosis in human RS4:11 cells assessed as viable cells at 10 nM after 24 hrs by Annexin-V-FITC/propidium iodide staining based flow cytometry relative to control; type: functional; conditions: RS4-11, 24 h, read-out: Activity
[12] = target: T1, Protein cereblon/E3 ubiquitin-protein ligase Mdm2; assay: Protac activity at CRBN/MDM2 in human RS4:11 cells assessed as MDM2 degradation by Western blot analysis; type: cell-based
[13] = target: T1, Protein cereblon/E3 ubiquitin-protein ligase Mdm2; assay: Protac activity at CRBN/MDM2 in human RS4:11 cells assessed as reduction in MDM2 degradation at 100 nM preincubated with lenalidomide for 2 hrs followed by compound addition measured after 4 hrs by Western blot analysis; type: cell-based
Target sequence in this assay (Q00987 whole entry, looked up): as the sequence (Q00987 whole entry, looked up) above
Target sequence in this assay (Q96SW2 whole entry, looked up): as the sequence (Q96SW2 whole entry, looked up) above

[14] = target: T1, Protein cereblon/E3 ubiquitin-protein ligase Mdm2; assay: Protac activity at CRBN/MDM2 in human RS4:11 cells assessed as increase in degradation of MDM2 at 100 nM by Western blot analysis; type: cell-based
RS4-11 [15] = assay: Induction of apoptosis in human RS4:11 cells assessed as late apoptotic cells at 100 nM after 24 hrs by Annexin-V-FITC/propidium iodide staining based flow cytometry relative to control; type: functional
[16] = target: T1, Protein cereblon/E3 ubiquitin-protein ligase Mdm2; assay: Protac activity at CRBN/MDM2 in human RS4:11 cells assessed as maximal MDM2 degradation level at 100 nM after 24 hrs by Western blot analysis relative to control; type: cell-based
RS4-11 [17] = assay: Induction of apoptosis in human RS4:11 cells assessed as late apoptotic cells at 1000 nM after 24 hrs by Annexin-V-FITC/propidium iodide staining based flow cytometry relative to control; type: functional
RS4-11 [18] = assay: Induction of apoptosis in human RS4:11 cells by Annexin-V-FITC/propidium iodide staining based flow cytometry relative to control; type: functional, cell-based
RS4-11 [19] = assay: Induction of apoptosis in human RS4:11 cells assessed as necrotic cells at 100 nM after 24 hrs by Annexin-V-FITC/propidium iodide staining based flow cytometry relative to control; type: functional
RS4-11 [20] = assay: Induction of apoptosis in human RS4:11 cells assessed as early apoptotic cells at 1000 nM after 24 hrs by Annexin-V-FITC/propidium iodide staining based flow cytometry relative to control; type: functional
RS4-11 [21] = assay: Induction of apoptosis in human RS4:11 cells assessed as early apoptotic cells at 10 nM after 24 hrs by Annexin-V-FITC/propidium iodide staining based flow cytometry relative to control; type: functional
[22] = target: T1, Protein cereblon/E3 ubiquitin-protein ligase Mdm2; assay: Protac activity at CRBN/MDM2 in human RS4:11 cells assessed as effect on TP53 expression at 30 to 100 nM measured after 6 hrs by qRT-PCR method; type: cell-based
RS4-11 [23] = assay: Induction of apoptosis in human RS4:11 cells assessed as PARP cleavage at 100 nM to 1 uM by Westernblot analysis; type: functional, cell-based
[24] = target: T1, Protein cereblon/E3 ubiquitin-protein ligase Mdm2; assay: Protac activity at CRBN/MDM2 in human RS4:11 cells assessed as degradation of MDM2 at 100 nM to 1 uM by Westernblot analysis; type: cell-based
[25] = target: T1, Protein cereblon/E3 ubiquitin-protein ligase Mdm2; assay: Protac activity at CRBN/MDM2 in human RS4:11 cells assessed as upregulation of MDM2 expression at 100 nM measured after 6 hrs by qRT-PCR method; type: cell-based
[26] = target: T1, Protein cereblon/E3 ubiquitin-protein ligase Mdm2; assay: Protac activity at CRBN/MDM2 in human RS4:11 cells assessed as increase in accumulation of p53 at 100 nM by Western blot analysis; type: cell-based
[27] = target: T1, Protein cereblon/E3 ubiquitin-protein ligase Mdm2; assay: Protac activity at CRBN/MDM2 in human RS4:11 cells assessed MDM2 degradation at 10 to 100 nM measured after 1 hr by immunoblot analysis; type: cell-based
[28] = target: T1, Protein cereblon/E3 ubiquitin-protein ligase Mdm2; assay: Protac activity at CRBN/MDM2 in human RS4:11 cells assessed as upregulation of P21 expression at 100 nM measured after 6 hrs by qRT-PCR method; type: cell-based
RS4-11 [29] = assay: Induction of apoptosis in human RS4:11 cells assessed as caspase3 expression at 100 nM to 1 uM by Westernblot analysis; type: functional, cell-based
[30] = target: T1, Protein cereblon/E3 ubiquitin-protein ligase Mdm2; assay: Protac activity at CRBN/MDM2 in human RS4:11 cells assessed as upregulation of P53 expression at 100 nM to 1 uM by Westernblot analysis; type: cell-based
RS4-11 [31] = assay: Antiproliferative activity against human RS4:11 cells assessed as reduction in cell viability after 48 hrs by MTT assay; type: functional, cell-based; conditions: RS4-11, 48 h
[32] = target: T1, Protein cereblon/E3 ubiquitin-protein ligase Mdm2; assay: Protac activity at CRBN/MDM2 in human RS4:11 cells assessed as increase in degradation of MDM2 at 10 to 100 nM measured after 12 hrs by Western blot analysis; type: cell-based
RS4-11 [33] = assay: Induction of apoptosis in human RS4:11 cells assessed as necrotic cells at 1000 nM after 24 hrs by Annexin-V-FITC/propidium iodide staining based flow cytometry relative to control; type: functional
RS4-11 [34] = assay: Induction of apoptosis in human RS4:11 cells assessed as early apoptotic cells at 100 nM after 24 hrs by Annexin-V-FITC/propidium iodide staining based flow cytometry relative to control; type: functional
[35] = target: T1, Protein cereblon/E3 ubiquitin-protein ligase Mdm2; assay: Protac activity at CRBN/MDM2 in human RS4:11 cells assessed as upregulation of P21 expression at 1 uM measured after 6 hrs by qRT-PCR method; type: cell-based
[36] = target: T1, Protein cereblon/E3 ubiquitin-protein ligase Mdm2; assay: Protac activity at CRBN/MDM2 in human RS4:11 cells assessed as upregulation of MDM2 expression at 1 uM measured after 6 hrs by qRT-PCR method; type: cell-based
[37] = target: T1, Protein cereblon/E3 ubiquitin-protein ligase Mdm2; assay: Protac activity at CRBN/MDM2 in human RS4:11 cells assessed as effect on TP53 expression at 1 uM measured after 6 hrs by qRT-PCR method; type: cell-based

SMILES: CCOc1cc(C(C)(C)C)ccc1C1=N[C@@H](c2ccc(Cl)cc2)[C@@H](c2ccc(Cl)cc2)N1C(=O)N1CCN(CC#Cc2cccc3c2CN(C2CCC(=O)NC2=O)C3=O)CC1 (some centres undefined)
- Activity [1]: Active
- Activity [2]: Active
- Activity [3]: Active
- Activity [4]: Tde
- Activity (RS4-11 [5]): 0.2%
- Activity (RS4-11 [6]): 10.1%
- viability at 0.1 µM (RS4-11 [7]): 26%
- viability at 1 µM (RS4-11 [8]): 28.8%
- Activity (RS4-11 [9]): Active
- Activity [10]: Active
- viability at 0.01 µM (RS4-11 [11]): 79.2%
- Activity [12]: Dose-dependent effect
- DC50 [12]: 23 nM
- Activity [13]: Active
- Activity [14]: Active
- Activity (RS4-11 [15]): 51.6%
- Emax [16]: 90%
- Activity (RS4-11 [17]): 43.9%
- Activity (RS4-11 [18]): Dose-dependent effect
- Activity (RS4-11 [19]): 0.1%
- Activity (RS4-11 [20]): 27.1%
- Activity (RS4-11 [21]): 10.5%
- Activity [22]: inactive
- Activity (RS4-11 [23]): Active
- Activity [24]: Active
- Activity [25]: Active
- Activity [26]: Active
- Activity [27]: Active
- Activity [28]: Active
- Activity (RS4-11 [29]): Active
- Activity [30]: Active
- IC50 (RS4-11 [31]): 3.2 nM
- Activity [32]: Active
- Activity (RS4-11 [33]): 0.27%
- Activity (RS4-11 [34]): 22.3%

SMILES: CCOc1cc(C(C)(C)C)ccc1C1=N[C@@H](c2ccc(Cl)cc2)[C@@H](c2ccc(Cl)cc2)N1C(=O)N1CCN(C(=O)CCC#Cc2cccc3c2CN(C2CCC(=O)NC2=O)C3=O)CC1 (some centres undefined)
- Activity [32]: Active

SMILES: CCOc1cc(C(C)(C)C)ccc1C1=N[C@@H](c2ccc(Cl)cc2)[C@@H](c2ccc(Cl)cc2)N1C(=O)N1CCN(CCCC#Cc2cccc3c2CN(C2CCC(=O)NC2=O)C3=O)CC1 (some centres undefined)
- Activity (RS4-11 [9]): Active

SMILES: CCOc1cc(C(C)(C)C)ccc1C1=N[C@@H](c2ccc(Cl)cc2)[C@@H](c2ccc(Cl)cc2)N1C(=O)N1CCN(CCC#Cc2cccc3c2CN(C2CCC(=O)NC2=O)C3=O)CC1 (some centres undefined)
- Activity (RS4-11 [9]): Active

SMILES: CCOc1cc(C(C)(C)C)ccc1C1=NC(c2ccc(Cl)cc2)C(c2ccc(Cl)cc2)N1C(=O)N1CCN(CC#Cc2cccc3c2CN(C2CCC(=O)NC2=O)C3=O)CC1 (racemic)
- Activity (RS4-11 [9]): Active
- Activity [14]: Active
- Activity [26]: Active
- IC50 (RS4-11 [31]): 7.2 nM
- Activity [32]: Active

SMILES: CCOc1cc(C(C)(C)C)ccc1C1=N[C@@H](c2ccc(Cl)cc2)[C@@H](c2ccc(Cl)cc2)N1C(=O)N1CCNCC1
- Activity [35]: Active
- Activity (RS4-11 [5]): 0.00582%
- Activity (RS4-11 [6]): 5.37%
- viability at 0.1 µM (RS4-11 [7]): 84.4%
- viability at 1 µM (RS4-11 [8]): 69.5%
- viability at 0.01 µM (RS4-11 [11]): 84.2%
- Activity [36]: Active
- Activity (RS4-11 [15]): 5.45%
- Activity (RS4-11 [17]): 16.3%
- Activity (RS4-11 [19]): 0%
- Activity (RS4-11 [20]): 13.7%
- Activity (RS4-11 [21]): 10.5%
- Activity [37]: inactive
- Activity (RS4-11 [33]): 0.46%
- Activity (RS4-11 [34]): 10.1%

SMILES: CCOc1cc(C(C)(C)C)ccc1C1=N[C@H](c2ccc(Cl)cc2)[C@H](c2ccc(Cl)cc2)N1C(=O)N1CCN(C(=O)CNC(=O)CCCC#Cc2cccc3c2CN(C2CCC(=O)NC2=O)C3=O)CC1 (some centres undefined)
- Activity [32]: Active
